Data as given in patent publication US12098217B2, “Fusion peptides as antimicrobial agents” (CENTRE NATIONAL DE LA RECHERCHE SCIENTIFIQUE, priority 2019, dated 2024).
Converted amounts (≈) assume the structure as drawn. Read-outs that look alike come from different tables or passages of the source. Square brackets hold non-standard residues; d marks the D form. Peptide text beside a SMILES is read from it. * marks the point of attachment. 5FAM = O=C1OC2(c3ccc(O)cc3Oc3cc(O)ccc32)c2ccc(C(=O)*)cc21; Cha = N[C@@H](CC1CCCCC1)C(=O)O

Tests used:
[1] = molecular target: T1, E. coli SC (^EcSC, beta ring, DnaN) (Escherichia coli, UniProt P0A988); assay: ITC, peptide interaction with E. coli sliding clamp; type: binding
T1 construct: inferred from the pET15b vector and the Ni-NTA/imidazole purification; made in house; host or cells: E. coli BL21 (DE3) pLys
T1 sequence (P0A988 whole entry): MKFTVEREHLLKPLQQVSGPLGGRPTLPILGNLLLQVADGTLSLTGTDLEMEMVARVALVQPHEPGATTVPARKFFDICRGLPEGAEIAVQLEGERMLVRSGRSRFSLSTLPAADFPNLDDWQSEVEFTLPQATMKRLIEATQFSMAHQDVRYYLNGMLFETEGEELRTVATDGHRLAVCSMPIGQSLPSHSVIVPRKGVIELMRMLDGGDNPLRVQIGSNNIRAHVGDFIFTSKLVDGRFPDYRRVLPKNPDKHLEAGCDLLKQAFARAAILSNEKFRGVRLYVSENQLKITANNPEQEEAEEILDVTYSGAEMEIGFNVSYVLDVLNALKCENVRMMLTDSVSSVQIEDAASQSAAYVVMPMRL
Description: The DnaN protein was expressed from plasmids pET15b, containing the dnaN gene from E. coli, transfected in BL21 (DE3) pLys E. coli strain. Cells were grown in LB at 37° C. to OD 0.5, then induced by IPTG (0.1 mM) at 28° C. overnight. DnaN protein was first enriched on a Ni-NTA column, eluted with an imidazole step (300 mM) and further purified on a Source Q column in buffer containing 20 mM Tris HCl pH 7.5, 0.5 mM EDTA and 10% glycerol, using a gradient from 0 to 0.5 M NaCl. After a final ultracentrifugation (45K, 1 h, 20° C.), soluble proteins were concentrated on a Centricon 30K (Millipore) in the same buffer and stored at 4° C. in 2 M ammonium sulfate.
ITC experiments were performed on a iTC200 (Microcal Malvern Panalytical) or PEAQ-ITC instrument (Microcal Malvern Panalytical). The E. coli SC were washed extensively with ITC buffer (R1 buffer: 10 mM Hepes pH 7.4, 0.15 M NaCl, 3 mM EDTA) on Centrikon 10K at 4° C. before ITC experiments. […] Similarly, E. coli 70S ribosome particles were also washed extensively with ITC 70S buffer (50 mM Tris HCl pH7.5, 30 mM KCl, 70 mM NH4Cl, 7 mM MgCl2, 1 mM DTT, 5% glycerol) on Centrikon 100K at 4° C. before ITC experiments. […] […] Data were corrected from control experiments in which peptides were injected in ITC buffer solution. Each titration was performed at least twice. Analyses of experimental data were performed with AFFINImeter software (https://www.affinimeter.com; S4S, Santiago de Compostela, Spain).

[2] = tested on: E. coli 70S ribosome (^Ec70S); assay: ITC, peptide interaction with E. coli 70S ribosome; type: binding; settings: for ΔG / ΔH / −TΔS: FITC peptides (*) values not well defined
Description: E. coli MRE600 cells were grown at 37° C. in LB medium until OD^600=1. Cells were centrifuged at 4° C., and pellets were resuspended in buffer A (20 mM Tris HCl pH 7.5; 200 mM NH4Cl; 20 mM MgCl2; 0.1 mM EDTA; 6 mM β-mercaptoethanol) and lysed using a French press at 1.6 kbar. The crude lysate was centrifuged (18 200 rpm) for 30 mn at 4° C. The supernatant was further centrifuged (47000 rpm) at 4° C. for 4 hours and the pellet resuspended in 12.5 ml of buffer A. This solution was laid on a 30% sucrose cushion and centrifuged (34 000 rpm) for 19 hours at 4° C. The ribosome pellet was resuspended in 12.5 ml buffer B (20 mM Tris HCl pH 7.5; 50 mM NH4Cl; 10 mM MgCl2; 0.1 mM EDTA; 6 mM β-mercaptoethanol) and centrifuged again (18 200 rpm) for 1 hour at 4° C. The supernatant was concentrated on Centrikon 100K (Millipore) and washed extensively with ITC 70S buffer. Ribosome concentration was determined by UV absorption at 260 nm. Samples were snap frozen in liquid nitrogen and kept at −80° C.
ITC experiments were performed on a iTC200 (Microcal Malvern Panalytical) or PEAQ-ITC instrument (Microcal Malvern Panalytical). The E. coli SC were washed extensively with ITC buffer (R1 buffer: 10 mM Hepes pH 7.4, 0.15 M NaCl, 3 mM EDTA) on Centrikon 10K at 4° C. before ITC experiments. […] Similarly, E. coli 70S ribosome particles were also washed extensively with ITC 70S buffer (50 mM Tris HCl pH7.5, 30 mM KCl, 70 mM NH4Cl, 7 mM MgCl2, 1 mM DTT, 5% glycerol) on Centrikon 100K at 4° C. before ITC experiments. Peptides (100 to 400 μM) were titrated at 30° C. (303.15 K) in sequential injections (usually 2 μl each) into a SC (20 or 30 μM) or 70S (10 to 15 μM) solution. Data were corrected from control experiments in which peptides were injected in ITC buffer solution. Each titration was performed at least twice. Analyses of experimental data were performed with AFFINImeter software (https://www.affinimeter.com; S4S, Santiago de Compostela, Spain).
The lack of interaction with the ribosome of E. coli has been measured by ITC at 30° C.:
The interactions of these peptides with the E. coli SC (beta ring) and the ribosome were measured by ITC at […]: […]

[3] = tested on: E. coli D22 strain; assay: microbe, parasite or virus in culture; type: cell-based
Text: E. coli strain D22 (F-, IpxC101, proA23, lac-28, tsx-81, trp-30, his-51, tufA1, rpsL173(strR), ampCp-1 was purchased at E. coli Genetic Stock Center (Yale University) and used in the determination of MIC and in the peptide penetration assays. E. coli ATCC23724 cells were used to infect D. melanogaster flies. 70S ribosomes were purified from the E. coli MRE600 strain (Accession AY140951) and BL21 (DE3) pLys strain was used for production of the DnaN protein.
(§1) E. coli strains were cultivated on either agar or liquid 1× Mueller Hinton broth unless specified. MIC assays were performed in duplicate in 96-well microtiter plates on the basis of the protocol recommended by the Clinical and Laboratory Standards Institute. Briefly, a mix of 5-6 fresh (less than 36 hours) colonies grown on MH agar plates were inoculated in 3 ml of MH broth and incubated for about 16 h at 37° C. under agitation. 30 μl of this saturated culture were inoculated in 3 ml of fresh medium and allowed to grow until OD600 nm of about 0.6-0.8. Dilution to an OD600 nm of 0.002 was made in MH broth. Within a time laps not exceeding 30 min, 50 μl of this cell suspension was added to 50 μl of MH broth (containing or not the peptide/antibiotic diluted in MH broth) in wells of a 96-well round bottom microwell plate (Greiner; final cell density about 2 to 5×10^5 cfu/ml). Plates were incubated at 37° C. for 18-24 h and final turbidity of each well was measured at 620 nm using a Multiskan FC microplate reader (Thermo Scientific). MIC was defined as the minimal antibiotic concentration that result in no increase of turbidity at that time. Each MIC determination was performed in duplicate and at least in two independent experiments. Plating of 75 μl of the content of the wells of interest on LB Agar plates was used to determine the MBC that is defined by a decrease of at least 99.9% of cell viability as compared to the number of viable cells in the inoculum (about 2 to 5×10^4 cfu).

[4] = tested on: E. coli ATCC 25922 (DSM 1103) strain; type: cell-based; settings: ATCC 25922, 36 h
Description: as §1
The antimicrobial activities of these peptides have been tested against the E. coli ATCC 25922 (DSM 1103) strain in 1× Mueller-Hinton broth as mentioned above.
The antimicrobial activities of these peptides and controls have been tested against the E. coli ATCC 25922 (DSM 1103) strain in 1× Mueller-Hinton broth.

[5] = ITC 30° C. (303.15 K), Table 2A, ^EcSC, Ni = no specific interaction
[6] = ITC 30° C., Table 2A, ^EcSC, Ni = no specific interaction
[7] = ITC 30° C., Table 2B, ^Ec70S, Ni = no specific interaction
[8] = E. coli D22, Mueller Hinton broth, range of at least 2 independent experiments

Q: How did the “interaction with ^EcSC, in words” value ([1]; ITC 30° C.) turn out when `CC[C@H](C)[C@H](NC(=O)[C@@H]1CCCN1C(=O)[C@H](CCCNC(=N)N)NC(=O)[C@@H]1CCCN1C(=O)[C@@H]1CCCN1C(=O)[C@@H](NC(=O)[C@@H]1CCCN1C(=O)[C@H](CCCNC(=N)N)NC(=O)[C@@H]1CCCN1C(=O)[C@H](CC(C)C)NC(=O)[C@H](Cc1ccc(O)cc1)NC(=O)[C@H](CO)NC(=O)CNC(=O)[C@H](CCCCN)NC(=O)[C@H](CC(=O)O)NC(=O)[C@@H](N)C(C)C)[C@@H](C)O)C(=O)N[C@@H](Cc1ccc(O)cc1)C(=O)N[C@@H](CC(N)=O)C(=O)N[C@@H](CCCNC(=N)N)C(=O)N[C@@H](CC(N)=O)C(=O)NCC(=O)N1CCC[C@H]1C(=O)N[C@@H](CCCNC(=N)N)C(=O)N[C@@H](CCC(N)=O)C(=O)N[C@@H](CC1CCCCC1)C(=O)N[C@@H](CC(=O)O)C(=O)N[C@@H](CC(C)C)C(=O)N[C@@H](Cc1ccccc1)C(=O)O` [Peptide P116] (H-VDKGSYLPRPTPPRPIYNRNGPRQ[Cha]DLF-OH) was run?
A: as efficiently as P7 alone

Q: And the “ΔH” value [1, 5]?
A: -13.9 kcal/mol

Q: What about the “ΔG” value [1, 6] of the same compound?
A: -9.61 kcal/mol

Q: What about the “−TΔS” value [1, 6] of the same compound?
A: 4.3 kcal/mol

Q: What about the “interaction with ^Ec70S, in words” value ([2]; ITC 30° C.) of the same compound?
A: efficiently interact

Q: What about the Kd [2, 7] of the same compound?
A: 37 nM

Q: What about the “ΔG” value [2, 7] of the same compound?
A: -10.3 kcal/mol

Q: What about the “ΔH” value [2, 7] of the same compound?
A: -22.3 kcal/mol

Q: And the “−TΔS” value [2, 7]?
A: 12 kcal/mol

Q: And the “affinity for the ribosome relative to affinity for SC” value ([2]; from Table 2, ^Ec70S versus ^EcSC)?
A: three times higher affinity

Q: What about the “MBC” value ([3]; D22 strain) of the same compound?
A: 8 µg/mL (≈ 2.42 µM)

Q: And the “MIC (μM)” value ([3]; D22 strain)?
A: 1.2 to 2.4 µM

Q: And the “MIC (μg/ml)” value ([3]; D22 strain)?
A: 4 to 8 µg/mL

Q: What about the “antibacterial activity, in words” value ([3]; E. coli D22, microdilution broth assay) of the same compound?
A: no increase in the activity

Q: With `CC[C@H](C)[C@H](NC(=O)[C@@H](CCCNC(=N)N)NC(=O)[C@H](CCCNC(=N)N)NC(=O)[C@@H]1CCCN1C(=O)[C@@H]1CCCN1C(=O)[C@H](CCCNC(=N)N)NC(=O)[C@@H]1CCCN1C(=O)[C@H](CCCNC(=N)N)NC(=O)[C@@H]1CCCN1C(=O)[C@H](CC(C)C)NC(=O)[C@H](Cc1ccc(O)cc1)NC(=O)[C@@H]1CCCN1C(=O)[C@@H]1CCCN1C(=O)[C@H](CCCCN)NC(=O)[C@H](CC(=O)O)NC(=O)[C@@H](NC(=O)[C@H](CCCCN)NC(=O)c1ccc2c(c1)C(=O)OC21c2ccc(O)cc2Oc2cc(O)ccc21)C(C)C)C(=O)N[C@@H](Cc1ccc(O)cc1)C(=O)N[C@@H](CC(N)=O)C(=O)N[C@H](CCCNC(=N)N)C(=O)NCC(=O)N1CCC[C@H]1C(=O)N[C@@H](CCCNC(=N)N)C(=O)N[C@@H](CCC(N)=O)C(=O)N[C@@H](CC1CCCCC1)C(=O)N[C@@H](CC(=O)O)C(=O)N[C@@H](CC(C)C)C(=O)N[C@@H](Cc1ccccc1)C(=O)O` [CM1-92] (5FAM-KVDKPPYLPRPRPPR[dR]IYN[dR]GPRQ[Cha]DLF-OH) as the compound, how does the Kd ([2]; ITC, 30° C., E. coli ribosome, FITC-Onc112 series) read?
A: > 50000 nM

Q: And the “MIC” value [4]?
A: 16 µM (≈ 61.5 µg/mL)

Q: What does the source list for `CC[C@H](C)[C@H](NC(=O)[C@@H]1CCCN1C(=O)[C@H](CCCNC(=N)N)NC(=O)[C@@H]1CCCN1C(=O)[C@@H]1CCCN1C(=O)[C@@H](NC(=O)[C@@H]1CCCN1C(=O)[C@H](CCCNC(=N)N)NC(=O)[C@@H]1CCCN1C(=O)[C@H](CC(C)C)NC(=O)[C@H](Cc1ccc(O)cc1)NC(=O)[C@H](CO)NC(=O)CNC(=O)[C@H](CCCCN)NC(=O)[C@H](CC(=O)O)NC(=O)[C@@H](N)C(C)C)[C@@H](C)O)C(=O)N[C@@H](Cc1ccc(O)cc1)C(=O)N[C@@H](CC(N)=O)C(=O)N[C@@H](CCCNC(=N)N)C(=O)N[C@@H](CC(N)=O)C(=O)NCC(=O)N1CCC[C@H]1C(=O)N[C@@H](CCCNC(=N)N)C(=O)N[C@@H](CC1CCCCC1)C(=O)N[C@@H](Cc1ccccc1)C(=O)N[C@@H](CCC(N)=O)C(=O)N[C@@H](CC(C)C)C(=O)N[C@@H](CC(=O)O)C(=O)O` [Peptide P188]?
A: interaction with ^EcSC, in words ([1]; ITC 30° C.): fail to interact; ΔH (kcal/mole) [1, 5]: Ni; Kd (nM) [1, 6]: Ni; ΔG (kcal/mole) [1, 6]: Ni; −TΔS (kcal/mole) [1, 6]: Ni; Kd [2, 7]: 75.8 nM; ΔG [2, 7]: -9.89 kcal/mol; ΔH [2, 7]: -15.4 kcal/mol; −TΔS [2, 7]: 5.5 kcal/mol; MIC (μM) ([3]; D22 strain): 1.2 to 2.4 µM; MIC (μg/ml) ([3]; D22 strain): 4 to 8 µg/mL

Q: What does the source list for `CN(C)[C@@H]1C(=O)C(C(N)=O)=C(O)[C@@]2(O)C(=O)C3=C(O)c4c(O)cccc4[C@@](C)(O)[C@H]3C[C@@H]12` [Tetracyclin, reference compound]?
A: MIC (μM) [3, 8]: 0.56 to 1.12 µM; MIC (μg/ml) [3, 8]: 0.25 to 0.5 µg/mL; MBC ([3]; E. coli D22, decrease of at least 99.9% of cell viability): 0.5 µg/mL (≈ 1.13 µM)

Q: For `CC1(C)S[C@@H]2[C@H](NC(=O)[C@H](N)c3ccccc3)C(=O)N2[C@H]1C(=O)O` [Ampicillin, reference compound], which MIC ([3]; Escherichia coli, D22STRAIN, E. coli D22, Mueller Hinton broth, range of at least 2 independent experiments, read-out: MIC) is on record?
A: 22.9 to 45.8 µM

Q: What about the MIC ([3]; Escherichia coli, D22STRAIN, E. coli D22, Mueller Hinton broth, range of at least 2 independent experiments, read-out: MIC (μg/ml)) of the same compound?
A: 8 to 16 µg/mL

Q: What about the MBC ([3]; Escherichia coli, D22STRAIN, E. coli D22, decrease of at least 99.9% of cell viability, read-out: MBC) of the same compound?
A: 16 µg/mL (≈ 45.8 µM)
